# Reference: patent publication US5932623A, “Process for the production of fruit polyphenols from unripe rosaceae fruit” (The Nikka Whisky Distilling Co., Ltd.,, priority 1993, dated 1999)
# Read-outs that look alike come from different tables or passages of the source.
# Assays:
# [1] = Test method for antioxidative activity (peroxide formation from linolic acid, iron rhodanide method); settings: compound added at 2 μM/g (linolic acid); one week after addition; FIG. 4
# Protocol: 5 ml of a base solution (ethanol containing 4% of linolic acid) was mixed with 4 ml of a phosphate buffer solution (pH=7.0) and 1 ml of a sample solution in a tightly stoppered test tube. The test tube was kept in a 50° C. thermostat under light shielding. Also kept under the same conditions were a test tube (control) containing ethanol in place of linolic acid and a test tube (blank) containing the sample solvent in place of the sample.
# During the storage period, the reaction mixture was sampled with the lapse of time to quantitatively determine the amount of peroxide formed by the isothiocyanate method (the iron rhodanide method).
# hyaluronidase = biological target: T1, hyaluronidase (Bos taurus, UniProt Q2YDK3); test: Test for hyaluronidase-inhibiting activity (commercial hyaluronidase activated with compound 48/80); format: biochemical; settings: FIG. 16
# T1 construct: purchased
# T1 sequence (Q2YDK3 36-553): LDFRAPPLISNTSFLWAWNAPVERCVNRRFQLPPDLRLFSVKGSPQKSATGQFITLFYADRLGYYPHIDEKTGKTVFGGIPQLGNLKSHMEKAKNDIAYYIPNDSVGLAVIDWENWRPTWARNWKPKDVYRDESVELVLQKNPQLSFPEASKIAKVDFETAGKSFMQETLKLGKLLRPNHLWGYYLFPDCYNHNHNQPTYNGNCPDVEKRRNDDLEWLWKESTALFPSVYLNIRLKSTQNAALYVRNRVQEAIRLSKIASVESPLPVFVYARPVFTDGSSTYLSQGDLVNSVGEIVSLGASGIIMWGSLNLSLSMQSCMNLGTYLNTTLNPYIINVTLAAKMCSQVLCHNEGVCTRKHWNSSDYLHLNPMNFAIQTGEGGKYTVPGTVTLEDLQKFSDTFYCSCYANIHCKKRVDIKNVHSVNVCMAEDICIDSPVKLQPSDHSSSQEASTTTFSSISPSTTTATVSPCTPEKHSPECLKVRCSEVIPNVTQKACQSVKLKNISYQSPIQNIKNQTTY
# Protocol: That is, a sample solution was added to a commercial hyaluronidase solution, and preincubation was conducted. […] Then, a hyaluronic acid solution was added as a substrate, and a reaction was allowed to take place.
# The N-acetylglucosamine produced by the above reaction was subjected to the Elson-Morgan's procedure to develop a color. […] Hyaluronidase-inhibiting activity (%) was calculated using the following formula:
# (%)={(C-CB)-(S-SB)}.div.(C-CB)×100
# wherein S: absorbance of test solution,
# C: absorbance of control wherein a buffer solution is used in place of the sample,
# SB : absorbance of blank for S (the blank contained no enzyme), and
# CB : absorbance of blank for C (the blank contained no sample and no enzyme).
# [2] = biological target: T2, ACE (angiotensin I converting enzyme) (Homo sapiens, UniProt P12821); test: Test for ACE-inhibiting activity (commercial ACE, Bz-Gly-His-Leu substrate, fluorescence); format: biochemical
# T2 construct: purchased
# Protocol: The test for ACE-inhibiting activity was conducted by an ordinary method.
# The ACE-inhibiting activity of the sample solution was expressed by the following formula: […]
# where S: the fluorescent intensity of test solution,
# C: the fluorescent intensity of comparative solution wherein water was used in place of the sample,
# SB : the fluorescent intensity of blank for S (the blank contained water in place of the enzyme), and
# CB : the fluorescent intensity of blank for C (the blank contained water in place of the enzyme).
# [3] = biological target: T3, GTase (glucosyltransferase) of S. sobrinus (Streptococcus downei, UniProt P27470); test: Test for GTase-inhibiting activity (insoluble glucan formation, turbidity at 550 nm); format: biochemical, Streptococcus sobrinus ATCC 33478; settings: for GTase-inhibiting activity (in words): FIG. 17 and 18
# T3 construct: Centrifugation was conducted to remove bacterial cells and obtain a supernatant; made in house; host or cells: S. sobrinus culture supernatant (native secreted enzyme, ammonium sulfate and hydroxyapatite purified)
# Protocol: S. sobrinus was cultured in a TTY medium [Agric. Biol. Chem., 54 (11), pp. 2925-2929, 1990] at 37° C. for 18 hours. Centrifugation was conducted to remove bacterial cells and obtain a supernatant. To the supernatant was added ammonium sulfate to 50% saturation. Then, centrifugation was conducted to recover the resulting precipitate. The precipitate was redissolved in a 0.05 M phosphate buffer solution (pH 6.5). The resulting solution was dialyzed with the same buffer solution. The GTase in the dialyzate was purified and removed by hydroxyapatite chromatography. The GTase (capable of forming insoluble glucan) was eluted with an about 0.4 M phosphate buffer solution. The GTase-containing elute was used for the following test.
# A purified GTase solution and a sample solution were added to 1 ml of a substrate solution [a 0.1 M phosphate buffer solution (pH 6.5) containing 2% of sucrose, 0.1% of sodium azide and 40 μM of dextran T10]. Water was added for dilution to make the total volume 2 ml. The resulting solution was subjected to a reaction at 37° C. for 18 hours. The amount of insoluble glucan formed by the reaction was measured as a turbidity expressed by an absorbance at 550 nm, and the formation ratio (%) of insoluble glucan was calculated using the following formula: […]
# formation ratio (%) of insoluble glucan=(SS-SB).div.(CS-CB)×100 wherein SS: absorbance of sample, SB: absorbance of blank for sample (the blank contained no enzyme), CS: absorbance of control (containing no sample), and CB: absorbance of blank for control (the blank contained no sample and no enzyme).
# [4] = test system: Salmonella typhimurium TA 98 or TA 100; test: Antimutagenic activity, modified Ames method with S 9-mix; format: cell-based; settings: amount per plate
# Protocol: In this Example, antimutagenic activity was measured by modifying the ames method (Mutation Research, vol. 31, p. 347, 1975).
# An antimutagenic compound [benzo(a)pyrene or Trp-P-2] solution was mixed with a phosphate buffer solution, a sample solution, S 9-mix and a salmonella (a solution obtained by culturing Salmonella typhimurium TA 98 or TA 100 overnight). The mixture was cultured at 37° C. for 2 days. The number of the resulting colonies was counted. The amount of each polyphenol used was shown based on a scale expressed in geometric progression, between 1 and 300 μg/plate. Antimutagenic activity was calculated using the following formula: […]
# antimutagenic activity (%)={(C-B)-(S-B)}).div.(C-B)×100 wherein S: number of colonies of test solution
# C: number of colonies of control wherein water is used in place of the sample, and B: number of colonies of blank wherein water is used in place of the sample and the mutagenic com pound.
# T3 sequence (P27470 39-1592): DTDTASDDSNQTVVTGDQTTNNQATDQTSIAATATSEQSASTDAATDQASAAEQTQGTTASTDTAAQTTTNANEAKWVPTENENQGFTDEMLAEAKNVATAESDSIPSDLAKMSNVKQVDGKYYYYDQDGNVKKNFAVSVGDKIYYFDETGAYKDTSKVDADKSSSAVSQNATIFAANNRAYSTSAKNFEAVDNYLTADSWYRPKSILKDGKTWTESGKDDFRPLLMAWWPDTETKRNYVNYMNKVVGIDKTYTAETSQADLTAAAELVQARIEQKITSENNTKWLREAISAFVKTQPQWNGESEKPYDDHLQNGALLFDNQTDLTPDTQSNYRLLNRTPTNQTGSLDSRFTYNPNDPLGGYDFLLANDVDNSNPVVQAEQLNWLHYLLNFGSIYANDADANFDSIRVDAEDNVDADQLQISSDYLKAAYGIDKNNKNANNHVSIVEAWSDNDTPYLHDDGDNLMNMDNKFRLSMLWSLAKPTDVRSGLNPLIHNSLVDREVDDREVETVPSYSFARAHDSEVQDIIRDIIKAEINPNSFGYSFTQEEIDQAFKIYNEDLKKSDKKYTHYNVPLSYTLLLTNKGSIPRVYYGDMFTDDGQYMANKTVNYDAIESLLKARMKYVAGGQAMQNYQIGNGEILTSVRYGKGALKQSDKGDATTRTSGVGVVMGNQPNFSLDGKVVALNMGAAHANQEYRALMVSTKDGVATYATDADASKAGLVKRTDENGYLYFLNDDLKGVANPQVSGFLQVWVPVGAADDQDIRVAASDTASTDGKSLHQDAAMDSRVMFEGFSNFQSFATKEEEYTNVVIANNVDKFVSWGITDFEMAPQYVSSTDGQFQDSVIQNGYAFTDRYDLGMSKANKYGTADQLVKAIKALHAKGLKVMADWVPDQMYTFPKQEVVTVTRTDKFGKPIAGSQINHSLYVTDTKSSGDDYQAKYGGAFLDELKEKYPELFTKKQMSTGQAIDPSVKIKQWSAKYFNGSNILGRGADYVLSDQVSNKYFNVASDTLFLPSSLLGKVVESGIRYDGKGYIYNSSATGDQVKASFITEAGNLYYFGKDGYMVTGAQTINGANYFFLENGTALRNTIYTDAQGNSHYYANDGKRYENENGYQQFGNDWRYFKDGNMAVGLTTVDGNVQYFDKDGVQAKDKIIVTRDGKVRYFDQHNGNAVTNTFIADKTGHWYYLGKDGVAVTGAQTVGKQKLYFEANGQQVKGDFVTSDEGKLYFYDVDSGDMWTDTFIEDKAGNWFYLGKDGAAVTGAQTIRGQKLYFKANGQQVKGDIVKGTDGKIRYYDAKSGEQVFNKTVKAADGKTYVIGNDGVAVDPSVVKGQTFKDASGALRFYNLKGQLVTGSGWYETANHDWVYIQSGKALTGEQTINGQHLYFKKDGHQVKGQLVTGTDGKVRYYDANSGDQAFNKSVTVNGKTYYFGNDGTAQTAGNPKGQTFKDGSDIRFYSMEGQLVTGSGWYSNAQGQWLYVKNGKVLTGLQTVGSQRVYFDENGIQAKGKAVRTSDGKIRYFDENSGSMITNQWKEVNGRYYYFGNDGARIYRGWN
# T2 sequence (P12821 30-1306, species assumed): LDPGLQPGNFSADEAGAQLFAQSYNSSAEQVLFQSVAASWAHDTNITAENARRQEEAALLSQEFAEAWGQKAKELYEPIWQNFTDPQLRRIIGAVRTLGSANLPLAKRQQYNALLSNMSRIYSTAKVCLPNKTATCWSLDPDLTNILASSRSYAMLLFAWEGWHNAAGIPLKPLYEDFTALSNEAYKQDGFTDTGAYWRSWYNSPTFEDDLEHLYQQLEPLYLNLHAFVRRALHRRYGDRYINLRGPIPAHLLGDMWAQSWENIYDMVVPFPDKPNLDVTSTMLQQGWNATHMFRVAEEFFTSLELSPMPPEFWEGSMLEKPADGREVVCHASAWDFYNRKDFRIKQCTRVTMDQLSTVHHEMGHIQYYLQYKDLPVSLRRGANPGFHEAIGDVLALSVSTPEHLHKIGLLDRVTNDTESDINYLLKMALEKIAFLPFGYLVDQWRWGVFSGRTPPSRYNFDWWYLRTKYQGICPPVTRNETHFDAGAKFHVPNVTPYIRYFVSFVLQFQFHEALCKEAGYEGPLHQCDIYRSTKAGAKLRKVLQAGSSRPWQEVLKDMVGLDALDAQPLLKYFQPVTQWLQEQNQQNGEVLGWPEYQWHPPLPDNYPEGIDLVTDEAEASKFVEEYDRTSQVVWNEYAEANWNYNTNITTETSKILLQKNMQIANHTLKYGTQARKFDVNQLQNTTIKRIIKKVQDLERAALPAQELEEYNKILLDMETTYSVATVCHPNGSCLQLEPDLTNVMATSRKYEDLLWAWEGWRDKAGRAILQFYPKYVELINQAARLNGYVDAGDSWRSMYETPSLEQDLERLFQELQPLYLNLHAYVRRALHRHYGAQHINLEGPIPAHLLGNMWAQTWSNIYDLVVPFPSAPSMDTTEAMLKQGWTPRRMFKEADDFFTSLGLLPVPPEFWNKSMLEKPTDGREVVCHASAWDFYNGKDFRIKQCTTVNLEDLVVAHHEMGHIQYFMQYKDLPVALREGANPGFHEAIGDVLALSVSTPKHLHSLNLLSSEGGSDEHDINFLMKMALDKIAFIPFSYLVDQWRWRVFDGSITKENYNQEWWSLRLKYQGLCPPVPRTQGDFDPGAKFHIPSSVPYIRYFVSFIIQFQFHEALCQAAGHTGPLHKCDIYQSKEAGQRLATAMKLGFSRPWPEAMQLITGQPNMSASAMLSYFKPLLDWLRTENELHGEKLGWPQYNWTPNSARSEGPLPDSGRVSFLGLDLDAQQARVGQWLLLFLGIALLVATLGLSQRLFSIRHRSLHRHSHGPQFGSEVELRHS
smiles,measurement,setting,value
O=C(O)/C=C/c1ccc(O)cc1 [p-coumaric acid],"antioxidative activity (amount of peroxylipid formed, absorbance at 500 nm)",[1],no antioxidative activity
O=C(O)c1cc(=O)c2c(OCC(O)COc3cccc4oc(C(=O)O)cc(=O)c34)cccc2o1 [sodium cromoglicate],IC50,hyaluronidase,~109 µM
O=C(CCc1ccc(O)cc1)c1c(O)cc(O)cc1O [phloretin],"antioxidative activity (amount of peroxylipid formed, absorbance at 500 nm)",[1],no antioxidative activity
O=C(O)/C=C/c1ccc(O)c(O)c1 [caffeic acid],"antioxidative activity (amount of peroxylipid formed, absorbance at 500 nm)",[1],antioxidative activities equivalent to those of BHA and BHT
C[C@@H]1O[C@@H](OC[C@H]2O[C@@H](Oc3c(-c4ccc(O)c(O)c4)oc4cc(O)cc(O)c4c3=O)[C@H](O)[C@@H](O)[C@@H]2O)[C@H](O)[C@H](O)[C@H]1O [rutin],"antioxidative activity (amount of peroxylipid formed, absorbance at 500 nm)",[1],antioxidative activities equivalent to those of BHA and BHT
"O=C(O[C@@H]1Cc2c(O)cc(O)cc2O[C@@H]1c1ccc(O)c(O)c1)c1cc(O)c(O)c(O)c1 [ECg, (-)-epicatechin gallate]",IC50,"[2]; pure polyphenol compounds, FIG. 9, read-out: IC50 to ACE",2000 µM
same,IC50,[3],~452 µM
"NCCCC(=O)O [GABA, γ-aminobutyric acid]",ACE-inhibiting activity (in words),[2],no ACE-inhibiting activity
O=c1c(O)c(-c2ccc(O)c(O)c2)oc2cc(O)cc(O)c12 [quercetin],"antioxidative activity (amount of peroxylipid formed, absorbance at 500 nm)",[1],antioxidative activities equivalent to those of BHA and BHT
Oc1cc(O)c2c(c1)O[C@H](c1ccc(O)c(O)c1)[C@H](O)C2 [(-)-epicatechin],"antioxidative activity (amount of peroxylipid formed, absorbance at 500 nm)",[1],antioxidative activities equivalent to those of BHA and BHT
same,GTase-inhibiting activity (in words),[3],very low GTase-inhibiting activity
"O=C(O[C@@H]1Cc2c(O)cc(O)cc2O[C@@H]1c1cc(O)c(O)c(O)c1)c1cc(O)c(O)c(O)c1 [EGCg, (-)-epigallocatechin gallate]",IC50,[2],300 µM
same,amount showing 50% antimutagenic activity to Trp-P-2,"[4]; 1 μg of Trp-P-2, FIG. 13",about 51 μg
same,amount showing 50% antimutagenic activity to benzo[a]pyrene,"[4]; 5 μg of benzo[a]pyrene, FIG. 14",about 56 μg
O=C(CCc1ccc(O)cc1)c1c(O)cc(O)cc1O[C@@H]1O[C@H](CO)[C@@H](O)[C@H](O)[C@H]1O [phloridzin],"antioxidative activity (amount of peroxylipid formed, absorbance at 500 nm)",[1],no antioxidative activity
same,GTase-inhibiting activity (in words),[3],very low GTase-inhibiting activity
O=C(/C=C/c1ccc(O)c(O)c1)O[C@@H]1C[C@](O)(C(=O)O)C[C@@H](O)[C@H]1O [chlorogenic acid],GTase-inhibiting activity (in words),[3],very low GTase-inhibiting activity
Oc1cc(O)c2c(c1)O[C@H](c1ccc(O)c(O)c1)[C@@H](O)C2 [(+)-catechin],"antioxidative activity (amount of peroxylipid formed, absorbance at 500 nm)",[1],antioxidative activities equivalent to those of BHA and BHT
